The NIST ThermoML archive (doi:10.1016/j.tca.2005.08.012)
± gives the expanded uncertainty stated by the source.

Tests used:
[1] = xn = mol fraction of the nth substance listed; details: 101 kPa, Liquid, Vibrating tube method
[2] = 101.33 kPa, Liquid, Vibrating tube method

CCN(CC)CC [triethylamine] + C1CCCCC1
mass density [kg/m3], [1]
Details | x1 = 0.0102 | x1 = 0.0192 | x1 = 0.0299 | x1 = 0.0422 | x1 = 0.0498 | x1 = 0.0618 | x1 = 0.0712 | x1 = 0.0799 | x1 = 0.0895 | x1 = 0.0995
303.15 K | 768.28 ± 0.25 | 767.5 ± 0.25 | 766.58 ± 0.25 | 765.57 ± 0.26 | 764.97 ± 0.26 | 764.04 ± 0.26 | 763.35 ± 0.26 | 762.72 ± 0.26 | 762.05 ± 0.26 | 761.36 ± 0.27
313.15 K | 758.66 ± 0.25 | 757.93 ± 0.25 | 757.05 ± 0.26 | 756.07 ± 0.26 | 755.48 ± 0.26 | 754.54 ± 0.26 | 753.86 ± 0.26 | 753.22 ± 0.26 | 752.62 ± 0.26 | 751.88 ± 0.27

CCCCNCCCC [dibutylamine] + C1CCCCC1
mass density [kg/m3], [1]
Details | x1 = 0.0109 | x1 = 0.0204 | x1 = 0.0298 | x1 = 0.0392 | x1 = 0.0493 | x1 = 0.0583 | x1 = 0.0689 | x1 = 0.0797 | x1 = 0.0881
303.15 K | 768.53 ± 0.25 | 768.07 ± 0.25 | 767.62 ± 0.25 | 767.24 ± 0.26 | 766.84 ± 0.26 | 766.46 ± 0.26 | 766.05 ± 0.26 | 765.6 ± 0.26 | 765.27 ± 0.26
313.15 K | 759.01 ± 0.25 | 758.59 ± 0.25 | 758.19 ± 0.26 | 757.79 ± 0.26 | 757.36 ± 0.26 | 756.99 ± 0.26 | 756.55 ± 0.26 | 756.11 ± 0.26 | 755.77 ± 0.26

CCCCN(CCCC)CCCC [tributylamine] + C1CCCCC1
mass density [kg/m3], [1]
Details | x1 = 0.0103 | x1 = 0.0216 | x1 = 0.0318 | x1 = 0.0402 | x1 = 0.0516 | x1 = 0.0598 | x1 = 0.0709 | x1 = 0.0807 | x1 = 0.0861
303.15 K | 768.92 ± 0.25 | 768.75 ± 0.25 | 768.65 ± 0.25 | 768.57 ± 0.26 | 768.46 ± 0.26 | 768.38 ± 0.26 | 768.26 ± 0.26 | 768.18 ± 0.26 | 768.14 ± 0.26
313.15 K | 759.38 ± 0.25 | 759.25 ± 0.25 | 759.17 ± 0.26 | 759.09 ± 0.26 | 758.99 ± 0.26 | 758.97 ± 0.26 | 758.92 ± 0.26 | 758.91 ± 0.26 | 758.99 ± 0.26

CCCCN [1-butanamine]
[2]
Details | mass density [kg/m3]
303.15 K | 728.65 ± 0.41
313.15 K | 719.17 ± 0.41

CCCN [propan-1-amine] + C1CCCCC1
mass density [kg/m3], [1]
Details | x1 = 0.0076 | x1 = 0.0169 | x1 = 0.0282 | x1 = 0.0365 | x1 = 0.0483 | x1 = 0.057 | x1 = 0.0652 | x1 = 0.0747 | x1 = 0.0859
303.15 K | 768.47 ± 0.25 | 767.75 ± 0.25 | 766.86 ± 0.25 | 766.22 ± 0.26 | 765.3 ± 0.26 | 764.61 ± 0.26 | 763.97 ± 0.26 | 763.25 ± 0.26 | 762.47 ± 0.26
313.15 K | 758.92 ± 0.25 | 758.21 ± 0.25 | 757.38 ± 0.26 | 756.8 ± 0.26 | 755.92 ± 0.26 | 755.27 ± 0.26 | 754.68 ± 0.26 | 753.96 ± 0.26 | 753.15 ± 0.26

CCN(CC)CC [triethylamine] + c1ccccc1
mass density [kg/m3], [1]
Details | x1 = 0.0102 | x1 = 0.0209 | x1 = 0.0311 | x1 = 0.0395 | x1 = 0.0501 | x1 = 0.0618 | x1 = 0.0712 | x1 = 0.0804 | x1 = 0.0919 | x1 = 0.1
303.15 K | 865.85 ± 0.25 | 863.38 ± 0.25 | 861.03 ± 0.25 | 859.07 ± 0.25 | 856.75 ± 0.25 | 854.1 ± 0.26 | 851.95 ± 0.26 | 850 ± 0.26 | 847.45 ± 0.26 | 845.76 ± 0.26
313.15 K | 855.14 ± 0.25 | 852.62 ± 0.25 | 850.24 ± 0.25 | 848.31 ± 0.25 | 845.93 ± 0.25 | 843.31 ± 0.26 | 841.23 ± 0.26 | 839.27 ± 0.26 | 836.79 ± 0.26 | 835.08 ± 0.26

CCCNCCC [dipropylamine] + c1ccccc1
mass density [kg/m3], [1]
Details | x1 = 0.0105 | x1 = 0.0207 | x1 = 0.0306 | x1 = 0.039 | x1 = 0.0508 | x1 = 0.0614 | x1 = 0.0723 | x1 = 0.0812 | x1 = 0.0917
303.15 K | 865.97 ± 0.25 | 863.74 ± 0.25 | 861.67 ± 0.25 | 859.91 ± 0.25 | 857.5 ± 0.25 | 855.36 ± 0.26 | 853.17 ± 0.26 | 851.42 ± 0.26 | 849.36 ± 0.26
313.15 K | 855.38 ± 0.25 | 853.26 ± 0.25 | 851.24 ± 0.25 | 849.55 ± 0.25 | 847.19 ± 0.25 | 845.11 ± 0.26 | 843 ± 0.26 | 841.29 ± 0.26 | 839.28 ± 0.26

CCCNCCC [dipropylamine] + C1CCCCC1
mass density [kg/m3], [1]
Details | x1 = 0.0114 | x1 = 0.0213 | x1 = 0.0321 | x1 = 0.0414 | x1 = 0.0509 | x1 = 0.0622 | x1 = 0.0727 | x1 = 0.0811 | x1 = 0.0919
303.15 K | 768.31 ± 0.25 | 767.65 ± 0.25 | 766.94 ± 0.25 | 766.29 ± 0.26 | 765.71 ± 0.26 | 764.96 ± 0.26 | 764.29 ± 0.26 | 763.78 ± 0.26 | 763.13 ± 0.26
313.15 K | 758.72 ± 0.25 | 758.03 ± 0.25 | 757.3 ± 0.26 | 756.67 ± 0.26 | 756.07 ± 0.26 | 755.34 ± 0.26 | 754.66 ± 0.26 | 754.17 ± 0.26 | 753.52 ± 0.27
